Data: ChEMBL document CHEMBL2010643 (Bioorg Med Chem Lett, 2012)
Calls of active or inactive are those of the source.

Columns and labels:
Mus musculus [1] = assay: Inhibition of LRRK2 phosphorylation at Ser910 in C57BL/6 mouse spleen at 100 mg/kg, po administered for 8 hrs followed by 2 hrs dosing; assay type: functional, organism-based; design: dose 100 mg/kg
[2] = target: T1, Leucine-rich repeat serine/threonine-protein kinase 2 (Homo sapiens, UniProt Q5S007); assay: Inhibition of wild-type LRRK2 expressed in HEK293 cells using nictide and [gamma32]ATP as substrate
Mus musculus [3] = assay: Inhibition of LRRK2 phosphorylation at Ser910 in C57BL/6 mouse kidney at 100 mg/kg, po administered for 8 hrs followed by 2 hrs dosing; assay type: functional, organism-based; design: dose 100 mg/kg
Mus musculus [4] = assay: Inhibition of LRRK2 phosphorylation at Ser935 in C57BL/6 mouse spleen at 100 mg/kg, po administered for 8 hrs followed by 2 hrs dosing; assay type: functional, organism-based; design: dose 100 mg/kg
[5] = target: T1, Leucine-rich repeat serine/threonine-protein kinase 2; assay: Inhibition of wild type LRRK2 phosphorylation at Ser935 in human lymphoblastoid cells at 0.03 to 3 uM after 90 mins by Western blot analysis; assay type: cell-based
[6] = target: T1, Leucine-rich repeat serine/threonine-protein kinase 2; assay: Inhibition of wild type LRRK2 phosphorylation at Ser910 in human lymphoblastoid cells at 0.03 to 3 uM after 90 mins by Western blot analysis; assay type: cell-based
[7] = target: T1, Leucine-rich repeat serine/threonine-protein kinase 2; details: HEK293; 0.03 to 3 uM
Description: Inhibition of wild-type LRRK2 phosphorylation at Ser935 expressed in HEK293 cells at 0.03 to 3 uM after 90 mins by immunoblot analysis

[8] = target: T1, Leucine-rich repeat serine/threonine-protein kinase 2; details: HEK293; 0.03 to 3 uM; remark: listed apart in the source
Description: Inhibition of wild-type LRRK2 phosphorylation at Ser910 expressed in HEK293 cells at 0.03 to 3 uM after 90 mins by immunoblot analysis

Mus musculus [9] = assay: Inhibition of LRRK2 phosphorylation at Ser935 in C57BL/6 mouse kidney at 100 mg/kg, po administered for 8 hrs followed by 2 hrs dosing; assay type: functional, organism-based; design: dose 100 mg/kg

T1 sequence (Q5S007 whole entry): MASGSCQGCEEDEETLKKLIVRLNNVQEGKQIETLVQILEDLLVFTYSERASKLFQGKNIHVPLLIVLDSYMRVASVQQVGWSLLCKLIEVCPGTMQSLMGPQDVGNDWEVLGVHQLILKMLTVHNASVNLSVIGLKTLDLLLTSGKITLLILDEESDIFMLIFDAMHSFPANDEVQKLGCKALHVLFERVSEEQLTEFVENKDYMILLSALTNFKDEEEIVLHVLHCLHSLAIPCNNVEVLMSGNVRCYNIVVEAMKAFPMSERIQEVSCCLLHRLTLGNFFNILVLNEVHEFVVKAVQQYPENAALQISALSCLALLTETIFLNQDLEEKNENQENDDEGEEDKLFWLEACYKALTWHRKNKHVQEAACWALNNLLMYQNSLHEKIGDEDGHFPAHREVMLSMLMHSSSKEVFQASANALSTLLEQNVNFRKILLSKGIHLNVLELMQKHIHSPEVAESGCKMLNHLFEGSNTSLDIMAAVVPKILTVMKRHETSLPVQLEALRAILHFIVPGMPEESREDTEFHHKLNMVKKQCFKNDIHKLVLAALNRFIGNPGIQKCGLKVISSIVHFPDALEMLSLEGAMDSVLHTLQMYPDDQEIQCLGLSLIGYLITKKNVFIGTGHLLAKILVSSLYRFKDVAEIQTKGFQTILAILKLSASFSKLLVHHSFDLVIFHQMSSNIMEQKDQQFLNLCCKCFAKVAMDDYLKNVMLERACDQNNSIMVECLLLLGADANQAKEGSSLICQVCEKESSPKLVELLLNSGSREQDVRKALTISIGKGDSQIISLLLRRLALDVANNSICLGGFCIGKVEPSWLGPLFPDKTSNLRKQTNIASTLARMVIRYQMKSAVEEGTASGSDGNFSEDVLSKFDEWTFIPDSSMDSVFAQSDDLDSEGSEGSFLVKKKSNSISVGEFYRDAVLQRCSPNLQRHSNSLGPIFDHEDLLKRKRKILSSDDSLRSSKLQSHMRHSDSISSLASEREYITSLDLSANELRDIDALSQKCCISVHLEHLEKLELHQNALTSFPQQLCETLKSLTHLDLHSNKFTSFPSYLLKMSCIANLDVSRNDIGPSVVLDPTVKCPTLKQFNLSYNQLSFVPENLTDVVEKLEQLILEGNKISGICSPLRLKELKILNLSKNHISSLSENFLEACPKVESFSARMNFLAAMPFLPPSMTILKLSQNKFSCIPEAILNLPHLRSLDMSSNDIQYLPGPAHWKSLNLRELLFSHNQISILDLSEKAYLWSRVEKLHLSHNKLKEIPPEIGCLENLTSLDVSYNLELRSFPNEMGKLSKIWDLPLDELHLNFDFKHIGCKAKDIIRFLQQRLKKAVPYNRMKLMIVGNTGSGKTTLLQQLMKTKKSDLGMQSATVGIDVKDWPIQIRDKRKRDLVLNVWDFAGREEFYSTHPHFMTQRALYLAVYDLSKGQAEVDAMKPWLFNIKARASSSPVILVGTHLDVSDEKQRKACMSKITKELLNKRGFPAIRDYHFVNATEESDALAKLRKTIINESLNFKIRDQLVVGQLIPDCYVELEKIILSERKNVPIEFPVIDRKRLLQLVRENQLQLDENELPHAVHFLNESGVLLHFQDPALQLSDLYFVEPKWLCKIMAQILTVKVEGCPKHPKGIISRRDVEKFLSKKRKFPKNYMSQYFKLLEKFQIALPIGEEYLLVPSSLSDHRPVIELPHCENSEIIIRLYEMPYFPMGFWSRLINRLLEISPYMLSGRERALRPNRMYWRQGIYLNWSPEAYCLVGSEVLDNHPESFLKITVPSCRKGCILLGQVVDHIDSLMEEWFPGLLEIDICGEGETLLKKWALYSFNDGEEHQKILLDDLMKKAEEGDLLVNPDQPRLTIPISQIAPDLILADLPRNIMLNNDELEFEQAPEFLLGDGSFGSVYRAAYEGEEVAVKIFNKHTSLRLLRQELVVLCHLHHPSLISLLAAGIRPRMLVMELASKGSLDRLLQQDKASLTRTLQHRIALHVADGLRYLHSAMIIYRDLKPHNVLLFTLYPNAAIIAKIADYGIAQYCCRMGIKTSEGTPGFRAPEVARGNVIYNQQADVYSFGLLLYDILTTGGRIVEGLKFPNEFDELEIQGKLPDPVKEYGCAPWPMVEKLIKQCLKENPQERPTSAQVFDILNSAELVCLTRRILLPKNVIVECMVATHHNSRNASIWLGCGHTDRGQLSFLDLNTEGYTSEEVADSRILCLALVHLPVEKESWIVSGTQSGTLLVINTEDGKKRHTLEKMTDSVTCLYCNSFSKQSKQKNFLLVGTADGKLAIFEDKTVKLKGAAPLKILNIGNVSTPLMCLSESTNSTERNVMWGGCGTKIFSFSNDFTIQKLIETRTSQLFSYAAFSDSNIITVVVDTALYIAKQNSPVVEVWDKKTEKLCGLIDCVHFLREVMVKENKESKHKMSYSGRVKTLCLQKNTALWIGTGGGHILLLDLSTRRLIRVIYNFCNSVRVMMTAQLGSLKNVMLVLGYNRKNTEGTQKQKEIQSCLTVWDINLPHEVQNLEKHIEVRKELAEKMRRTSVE

COc1cc(C(=O)N2CCC(N3CCN(C)CC3)CC2)ccc1Nc1ncc2c(n1)N(C)c1ccccc1C(=O)N2C
13 nM: IC50 [2]
active: inhibition (Mus musculus [1]) | inhibition (Mus musculus [3]) | inhibition (Mus musculus [4]) | inhibition [5] | inhibition [6] | inhibition [7] | inhibition [8] | inhibition (Mus musculus [9])
